{"source": "patent US9969744B2", "about": "“Compounds for use in cognition improvement” (FUNDACIÓN PARA LA INVESTIGACIÓN MÉDICA APLICADA, priority 2014, dated 2018)", "key": {"[1]": {"assay": "Pharmacokinetics: plasma and brain concentration in wild type mice", "assay_type": "in vivo", "details": "1 hour after 40 mg/Kg i.p.", "protocol": "Plasma and brain samples for measuring compounds concentrations were collected at predetermined times from four wild type mice per point. Three time points were measured: 0.25, 0.5 and 1.0 hour. Compounds concentration was measured using a Xevo-TQ MS triple quadropole mass spectrometer with an electrospray ionization (ESI) source and an Acquity UPLC (Waters, Manchester, UK).\nCompounds solutions were prepared by dissolving the samples in DMSO and this solution was made up to a final volume by addition of a mixture of Tween 20 and 0.9% NaCl (1/1/8, v:v:v, DMSO/Tween 20/saline). Compounds were injected as a single intraperitoneal injection. Animals were killed by decapitation.\nPlasma. Blood was collected into tubes containing EDTA and plasma was collected via centrifugation (4° C., 13200 rpm, 5 min) and stored at −80° C. until analysis.\nBrain. Brains were collected immediately after mice death. The brains were excised, weighed and frozen at −80° C. until further process for analysis.\nChromatographic separation was performed by gradient elution at 0.4 mL/min using an Acquity UPLC BEH C18 column (100×2.1 mm, 1.7 μm particle size; Waters). The mobile phase consisted of A: water with 0.1% formic acid, B: methanol with 0.1% formic acid. After 1.5 min at the initial condition of 95% A, solvent B was increased from 5% to 100% over 2 min, maintained at 100% for 1.5 min, then a linear gradient to initial conditions was applied for 0.1 min and maintained for 3.4 minutes to re-equilibrate the column, giving a cycle time of 8.5 min. The autosampler temperature was set at 10° C. and column temperature at 45° C.\nCompounds were monitored using a triple quadrupole mass spectrometer equipped with an electrospray ionization interface. For detection and quantification, a capillary voltage of 3.5 kV and a cone voltage of 38 V were used. Source and desolvation temperatures were 150° C. and 650° C., respectively. Ultra-high purity nitrogen was used for cone gas (75 L h^−1) and desolvation gas (1000 L h^−1). The electrospray ionization operated in the positive mode, and the collision gas used was ultra-pure argon at a flow rate of 0.15 mL min^−1.\nQuantification was achieved by external calibration using matrix-matched standards. Concentrations were calculated using a weighted least-squares linear regression (W=1/x). Calibration standards were prepared by adding the appropriate volume of diluted solutions of the compound (made in a mixture of methanol and water, 50:50, v:v) to aliquots of 50 uL of blank plasma or to 75 mg of homogenized blank brain. 2% formic acid in acetonitrile was added to precipitate the proteins. The mixture was then agitated for 10 min and centrifuged at 13200 rpm for 5 min at 4° C. […]"}, "[2]": {"test_system": "phosphorylated tau (p-Tau)", "assay": "AD-related markers in Tg2576 neurons: pTau", "assay_type": "cell-based, mouse", "details": "Tg2576 primary neurons, compound concentration 50 nM", "protocol": "The effects of the compounds on amyloid pathology were analysed in primary cultures after 21 days in-vitro (DIV) of neurons derived from the hippocampus and cortex of Tg2576 mouse embryos. Tg2576 mice express the human 695-aa isoform of APP (hAPP) containing the Swedish double mutation, which favours A3 production. Neurons were treated for two days and collected at day 3, 24 h after the last treatment. First it was analysed the effect of the compounds on hAPP processing by the amyloidogenic pathway by measuring the carboxyl terminal fragment AβPP (C99), which is the precursor of Aβ42. […]\nIt was next analyzed the effect of the compounds on levels of phosphorylated tau (p-Tau) in the same samples, another marker of AD, using a phospho-specific antibody (AT8) that recognizes hyperphosphorylated epitopes on Ser202/Thr205. […]\nTo analyze APP-derived fragments and p-Tau levels in primary neuronal cultures, cells were collected in a buffer containing SDS (2%), Tris-HCl (10 mM, pH 7.4), protease inhibitors (1 mM phenylmethylsulfonyl fluoride (PMSF) and Complete Protease Inhibitor Cocktail: Roche Diagnostics) and phosphatase inhibitors (0.1 mM Na3VO4 and 1 mM NaF). […] Aliquots of the supernatant were frozen at […] and their protein concentrations determined by the Bradford method using the Bio-Rad protein assay (Bio-Rad, Hercules, Calif., USA). […]"}}, "note": "Marks after values point to notes of the source that are not given here."}
{"smiles": "CCCc1nn(C)c2c(=O)[nH]c(-c3cc(Cc4ccc(C(=O)Nc5ccccc5N)cc4)ccc3OCC)nc12", "note": "[Example 1-11, N-(2-aminophenyl)-4-[[4-ethoxy-3-(1-methyl-7-oxo-3-propyl-6H-pyrazolo[4,3-d]pyrimidin-5-yl)phenyl]methyl]benzamide]", "values": [{"measurement": "Crosses BBB?", "setting": "[1]", "result": "Yes"}, {"measurement": "C (brain)", "setting": "[1]; standard deviation in brackets", "result": "1903.4 (565.8)^a nmol/Kg"}, {"measurement": "C (plasma)", "setting": "[1]; standard deviation in brackets", "result": "12132.5 (1762.9)^a nM"}, {"measurement": "Kp at 1 h", "setting": "[1]; mouse, brain/plasma, intraperitoneal, read-out: Brain/Plasma ratio", "result": 0.157}, {"measurement": "decrease in pTau levels over basal", "setting": "[2]", "result": "++ (basal x0.2≤(++)<basal x0.4 (reduction between 20% and 40%))"}]}
